This note sets out measurements from PubChem BioAssay AID330 (DTP/NCI, 2004).

This assay deals with P388 leukemia ip, CD2F1 mice, survival T/C. In words: NCI In Vivo Anticancer Drug Screen. Data for tumor model P388 Leukemia (intraperitoneal) in CD2F1 (CDF1) mice. Particulars: endpoint: median survival time, higher = longer survival. The essentials:
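Mice carrying the transplanted tumor received test compound or vehicle. Survival was recorded in each group, and the value is the treated-group measurement divided by that of the vehicle-treated control group.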

[1] abbreviates: dose: 50.0 mg/kg/injection, schedule: Q01DX005 (ip), vehicle: Klucel (hydroxypropylcellulose) (HPC).

Where “and” joins values, the source holds several entries; their conditions need not be identical. Equal entries are not always repeated. Inconclusive results and toxic doses are left out.

Take `CC(=O)O[C@H]1C(=O)[C@@]2(C)[C@H]([C@H](OC(=O)c3ccccc3)[C@]3(O)C[C@H](OC(=O)[C@H](O)[C@@H](NC(=O)c4ccccc4)c4ccccc4)C(C)=C1C3(C)C)[C@]1(OC(C)=O)CO[C@@H]1C[C@@H]2O`: the T/C reads like this: (dose: 1.1 mg/kg/injection, schedule: Q01DX005 (ip), vehicle: other) 118 % of control; (dose: 1.1 mg/kg/injection, schedule: Q01DX005 (iv), vehicle: other) 98 % of control; (dose: 1.1 mg/kg/injection, schedule: Q01DX009 (oral), vehicle: other) 106 % of control; (dose: 1.25 mg/kg/injection, schedule: Q01DX009 (ip), vehicle: Klucel (hydroxypropylcellulose) (HPC)) 106 % of control; (dose: 1.25 mg/kg/injection, schedule: Q01DX009 (sc), vehicle: Klucel (hydroxypropylcellulose) (HPC)) 106 % of control; (dose: 1.7 mg/kg/injection, schedule: Q01DX005 (ip), vehicle: other) 115 % of control. Also, the T/C (dose: 1.7 mg/kg/injection, schedule: Q01DX005 (iv), vehicle: other) is 106 % of control; the T/C (dose: 1.7 mg/kg/injection, schedule: Q03HX024 (ip), vehicle: other) is 160 % of control; the T/C (dose: 2.5 mg/kg/injection, schedule: Q01DX005 (ip), vehicle: Klucel (hydroxypropylcellulose) (HPC)) is 124 % of control; the T/C (dose: 2.5 mg/kg/injection, schedule: Q01DX009 (ip), vehicle: Klucel (hydroxypropylcellulose) (HPC)) was 112 % of control; the T/C (dose: 2.5 mg/kg/injection, schedule: Q01DX009 (oral), vehicle: Klucel (hydroxypropylcellulose) (HPC)) was 100 % of control; the T/C (dose: 2.5 mg/kg/injection, schedule: Q01DX009 (sc), vehicle: Klucel (hydroxypropylcellulose) (HPC)) was 99 % of control. Besides, the T/C reads like this: (dose: 2.6 mg/kg/injection, schedule: Q01DX001 (ip), vehicle: other) 106 % of control; (dose: 2.6 mg/kg/injection, schedule: Q01DX001 (iv), vehicle: other) 94 % of control; (dose: 2.6 mg/kg/injection, schedule: Q01DX005 (ip), vehicle: other) 115 % of control; (dose: 2.6 mg/kg/injection, schedule: Q01DX005 (iv), vehicle: other) 97 % of control; (dose: 2.6 mg/kg/injection, schedule: Q03HX024 (ip), vehicle: other) 153 % of control; (dose: 2.6 mg/kg/injection, schedule: Q04DX003 (iv), vehicle: other) 87 % of control. The T/C runs as follows: (dose: 3.6 mg/kg/injection, schedule: Q01DX005 (ip), vehicle: Klucel (hydroxypropylcellulose) (HPC)) 161 % of control; (dose: 4.0 mg/kg/injection, schedule: Q01DX001 (iv), vehicle: other) 95 % of control; (dose: 4.0 mg/kg/injection, schedule: Q01DX005 (ip), vehicle: other) 120 % of control; (dose: 4.0 mg/kg/injection, schedule: Q01DX009 (oral), vehicle: other) 96 % of control; (dose: 4.0 mg/kg/injection, schedule: Q03HX008 (ip), vehicle: other) 156 % of control; (dose: 4.0 mg/kg/injection, schedule: Q04DX003 (ip), vehicle: other) 120 % of control. The T/C reads like this: (dose: 4.0 mg/kg/injection, schedule: Q04DX003 (iv), vehicle: other) 87 % of control; (dose: 5.0 mg/kg/injection, schedule: Q01DX009 (ip), vehicle: Klucel (hydroxypropylcellulose) (HPC)) 116 % of control; (dose: 5.0 mg/kg/injection, schedule: Q01DX009 (oral), vehicle: Klucel (hydroxypropylcellulose) (HPC)) 99 % of control; (dose: 5.0 mg/kg/injection, schedule: Q01DX009 (sc), vehicle: Klucel (hydroxypropylcellulose) (HPC)) 98 % of control; (dose: 6.0 mg/kg/injection, schedule: Q01DX001 (ip), vehicle: other) 106 % of control; (dose: 6.0 mg/kg/injection, schedule: Q01DX005 (iv), vehicle: other) 112 % of control. Besides, the T/C by setting is: (dose: 6.0 mg/kg/injection, schedule: Q01DX009 (oral), vehicle: other) 99 % of control; (dose: 6.0 mg/kg/injection, schedule: Q03HX008 (ip), vehicle: other) 178 % of control; (dose: 6.0 mg/kg/injection, schedule: Q04DX003 (iv), vehicle: other) 89 % of control; (dose: 9.0 mg/kg/injection, schedule: Q01DX001 (ip), vehicle: other) 115 % of control; (dose: 9.0 mg/kg/injection, schedule: Q01DX001 (iv), vehicle: other) 106 % of control; (dose: 9.0 mg/kg/injection, schedule: Q01DX005 (iv), vehicle: other) 118 % of control. The T/C reads like this: (dose: 9.0 mg/kg/injection, schedule: Q01DX009 (oral), vehicle: other) 97 % of control; (dose: 10.0 mg/kg/injection, schedule: Q01DX009 (ip), vehicle: Klucel (hydroxypropylcellulose) (HPC)) 100 % of control and 106 % of control; (dose: 10.0 mg/kg/injection, schedule: Q01DX009 (oral), vehicle: Klucel (hydroxypropylcellulose) (HPC)) 99 % of control; (dose: 10.0 mg/kg/injection, schedule: Q01DX009 (sc), vehicle: Klucel (hydroxypropylcellulose) (HPC)) 96 % of control; (dose: 12.5 mg/kg/injection, schedule: Q04DX003 (ip), vehicle: Klucel (hydroxypropylcellulose) (HPC)) 150 % of control and 160 % of control; (dose: 16.7 mg/kg/injection, schedule: Q01DX005 (ip), vehicle: Klucel (hydroxypropylcellulose) (HPC)) 96 % of control. In addition, the T/C is, setting by setting: (dose: 20.0 mg/kg/injection, schedule: Q01DX009 (ip), vehicle: Klucel (hydroxypropylcellulose) (HPC)) 88 % of control; (dose: 20.0 mg/kg/injection, schedule: Q01DX009 (oral), vehicle: Klucel (hydroxypropylcellulose) (HPC)) 98 % of control; (dose: 20.0 mg/kg/injection, schedule: Q01DX009 (sc), vehicle: Klucel (hydroxypropylcellulose) (HPC)) 97 % of control; (dose: 21.6 mg/kg/injection, schedule: Q04DX003 (ip), vehicle: Klucel (hydroxypropylcellulose) (HPC)) 157 % of control; (dose: 25.0 mg/kg/injection, schedule: Q04DX003 (ip), vehicle: Klucel (hydroxypropylcellulose) (HPC)) 151 % of control and 155 % of control; (dose: 40.0 mg/kg/injection, schedule: Q01DX009 (oral), vehicle: Klucel (hydroxypropylcellulose) (HPC)) 104 % of control. For the same compound, the T/C (dose: 50.0 mg/kg/injection, schedule: Q04DX003 (ip), vehicle: Klucel (hydroxypropylcellulose) (HPC)) is 124 % of control; the T/C (dose: 60.0 mg/kg/injection, schedule: Q04DX003 (ip), vehicle: Klucel (hydroxypropylcellulose) (HPC)) is 107 % of control; the T/C (dose: 80.0 mg/kg/injection, schedule: Q01DX009 (oral), vehicle: Klucel (hydroxypropylcellulose) (HPC)) is 98 % of control; the T/C (dose: 160.0 mg/kg/injection, schedule: Q01DX009 (oral), vehicle: Klucel (hydroxypropylcellulose) (HPC)) was 99 % of control.
Take `CCN(CC)CCN(C(=O)C1c2ccccc2Oc2ccccc21)c1ccccc1`: the T/C (dose: 12.5 mg/kg/injection, schedule: Q01DX005 (ip), vehicle: Klucel (hydroxypropylcellulose) (HPC)) is 106 % of control; the T/C (dose: 25.0 mg/kg/injection, schedule: Q01DX005 (ip), vehicle: Klucel (hydroxypropylcellulose) (HPC)) is 100 % of control; the T/C under setting [1] is 100 % of control and 94 % of control.
Regarding `Cc1nc2c(cnn2C)c(=O)n1-c1cccc(Cl)c1`, the T/C was 98 % of control under setting [1]; 100 % of control (dose: 100.0 mg/kg/injection, schedule: Q01DX005 (ip), vehicle: Klucel (hydroxypropylcellulose) (HPC)); 87 % of control (dose: 200.0 mg/kg/injection, schedule: Q01DX005 (ip), vehicle: Klucel (hydroxypropylcellulose) (HPC)).
As for `CCCCCCCC#CC1(CCCC)Sc2ccccc2N1C` (stereo not given), the T/C (dose: 60.0 mg/kg/injection, schedule: Q01DX005 (ip), vehicle: saline with Tween-80) is 105 % of control; the T/C (dose: 120.0 mg/kg/injection, schedule: Q01DX005 (ip), vehicle: saline with Tween-80) was 110 % of control; the T/C (dose: 240.0 mg/kg/injection, schedule: Q01DX005 (ip), vehicle: saline with Tween-80) was 113 % of control.
On to `COC1CC(=O)C2OC(c3ccccc3)OCC2O1` (stereo not given), for which the T/C was 88 % of control (dose: 1.56 mg/kg/injection, schedule: Q01DX009 (ip), vehicle: other); 94 % of control (dose: 3.13 mg/kg/injection, schedule: Q01DX009 (ip), vehicle: other); 106 % of control (dose: 6.25 mg/kg/injection, schedule: Q01DX009 (ip), vehicle: other); 96 % of control (dose: 12.5 mg/kg/injection, schedule: Q01DX009 (ip), vehicle: other); 100 % of control and 97 % of control (dose: 25.0 mg/kg/injection, schedule: Q01DX009 (ip), vehicle: other); 99 % of control (dose: 50.0 mg/kg/injection, schedule: Q01DX009 (ip), vehicle: other). In addition, the T/C is, setting by setting: (dose: 100.0 mg/kg/injection, schedule: Q01DX009 (ip), vehicle: other) 92 % of control; (dose: 200.0 mg/kg/injection, schedule: Q01DX009 (ip), vehicle: other) 87 % of control; (dose: 400.0 mg/kg/injection, schedule: Q01DX009 (ip), vehicle: other) 98 % of control.
